The results in this text go back to US12590099B2, “Inhibitors of histone deacetylase useful for the treatment or prevention of HIV infection” (Merck Sharp & Dohme LLC, priority 2018, dated 2026).

Each structure is given as a SMILES string. A value given as a limit tells only on which side of the number the result lay.

Holding throughout (assay type): biochemical
One assay has as its target T1, Recombinant human HDAC8 (Homo sapiens, UniProt Q9BY41).
T1 construct: purchased Enzo Life Sciences BML-SE145-0100
T1 sequence (Q9BY41 1-377): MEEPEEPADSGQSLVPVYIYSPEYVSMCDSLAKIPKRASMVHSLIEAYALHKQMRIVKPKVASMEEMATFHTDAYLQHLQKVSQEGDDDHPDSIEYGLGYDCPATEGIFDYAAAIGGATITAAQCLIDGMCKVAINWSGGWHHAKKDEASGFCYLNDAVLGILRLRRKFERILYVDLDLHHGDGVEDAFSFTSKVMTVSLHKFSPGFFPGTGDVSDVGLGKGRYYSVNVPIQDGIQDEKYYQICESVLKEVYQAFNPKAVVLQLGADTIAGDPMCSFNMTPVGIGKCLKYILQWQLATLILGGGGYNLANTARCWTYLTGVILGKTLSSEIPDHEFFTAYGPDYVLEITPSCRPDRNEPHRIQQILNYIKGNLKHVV
Put plainly: Human HDAC enzyme inhibitor Fluor-de-Lys assay, HDAC8.

Another assay has as its target T2, HDAC6 (Homo sapiens, UniProt Q9UBN7).
T2 sequence (Q9UBN7 1-1215): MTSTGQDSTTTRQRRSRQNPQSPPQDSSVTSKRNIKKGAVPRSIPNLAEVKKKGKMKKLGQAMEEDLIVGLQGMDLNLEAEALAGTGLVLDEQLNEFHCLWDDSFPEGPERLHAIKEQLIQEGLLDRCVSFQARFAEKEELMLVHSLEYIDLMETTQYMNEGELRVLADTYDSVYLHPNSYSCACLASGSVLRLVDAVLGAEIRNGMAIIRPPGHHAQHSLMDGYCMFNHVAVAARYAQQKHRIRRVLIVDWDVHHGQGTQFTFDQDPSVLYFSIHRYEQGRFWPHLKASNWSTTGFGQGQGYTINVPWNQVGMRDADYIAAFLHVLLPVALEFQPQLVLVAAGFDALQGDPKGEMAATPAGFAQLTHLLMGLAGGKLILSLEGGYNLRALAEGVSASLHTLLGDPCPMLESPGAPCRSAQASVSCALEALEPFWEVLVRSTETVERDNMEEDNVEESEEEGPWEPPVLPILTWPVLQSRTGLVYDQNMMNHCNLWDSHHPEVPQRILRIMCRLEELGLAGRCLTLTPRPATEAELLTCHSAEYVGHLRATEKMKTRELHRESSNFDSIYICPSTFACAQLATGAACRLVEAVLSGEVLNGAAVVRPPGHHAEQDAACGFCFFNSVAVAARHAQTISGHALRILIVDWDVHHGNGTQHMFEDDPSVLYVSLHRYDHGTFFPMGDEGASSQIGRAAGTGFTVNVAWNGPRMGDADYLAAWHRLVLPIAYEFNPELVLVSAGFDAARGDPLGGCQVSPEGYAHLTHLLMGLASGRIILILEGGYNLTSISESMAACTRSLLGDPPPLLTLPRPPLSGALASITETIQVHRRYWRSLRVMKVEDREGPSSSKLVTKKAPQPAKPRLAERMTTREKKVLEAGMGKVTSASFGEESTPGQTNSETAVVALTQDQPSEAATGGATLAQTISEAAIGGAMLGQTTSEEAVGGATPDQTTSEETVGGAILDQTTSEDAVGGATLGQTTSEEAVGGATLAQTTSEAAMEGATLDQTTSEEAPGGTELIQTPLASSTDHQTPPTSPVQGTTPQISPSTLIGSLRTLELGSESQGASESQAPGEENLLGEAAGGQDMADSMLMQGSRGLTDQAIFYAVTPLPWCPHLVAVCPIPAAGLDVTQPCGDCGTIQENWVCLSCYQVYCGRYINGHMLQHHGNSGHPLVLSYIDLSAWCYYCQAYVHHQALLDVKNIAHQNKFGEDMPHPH
Put plainly: Human HDAC enzyme inhibitor Fluor-de-Lys assay, HDAC6.

The target of another assay is T3, Recombinant human HDAC1 (Homo sapiens, UniProt Q13547).
T3 construct: FLAG (C); made in house
The experiment in a line: Human HDAC enzyme inhibitor Fluor-de-Lys assay, HDAC1. Put shortly: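 Fluor-de-Lys format at room temperature (23° C.): compounds titrated 10-point, 1:3, preincubated with HDAC before substrate addition; HDAC1 run at 0.3 nM enzyme with 20 μM BML-KI104. Developer with excess HDAC inhibitor ends the reaction, and trypsin-liberated AMC fluorescence is the read-out.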

In the next assay the target is T4, Recombinant human HDAC2 (Homo sapiens, UniProt Q92769).
T4 construct: Full length human HDAC2-FLAG was expressed in baculovirus infected Sf9 cells; FLAG (C); made in house; host or cells: Sf9 (baculovirus)
Put plainly: Human HDAC enzyme inhibitor Fluor-de-Lys assay, HDAC2. The method, boiled down: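 Fluor-de-Lys format at room temperature (23° C.): compounds titrated 10-point, 1:3, preincubated with HDAC before substrate addition. Developer with excess HDAC inhibitor ends the reaction, and trypsin-liberated AMC fluorescence is the read-out.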

Assay [1] addresses T5, Recombinant human HDAC3/SMRT heterodimer (Homo sapiens, UniProt O15379).
T5 construct: FLAG (C); made in house
Put plainly: Human HDAC enzyme inhibitor Fluor-de-Lys assay, HDAC3/SMRT.

T5 sequence (O15379 whole entry): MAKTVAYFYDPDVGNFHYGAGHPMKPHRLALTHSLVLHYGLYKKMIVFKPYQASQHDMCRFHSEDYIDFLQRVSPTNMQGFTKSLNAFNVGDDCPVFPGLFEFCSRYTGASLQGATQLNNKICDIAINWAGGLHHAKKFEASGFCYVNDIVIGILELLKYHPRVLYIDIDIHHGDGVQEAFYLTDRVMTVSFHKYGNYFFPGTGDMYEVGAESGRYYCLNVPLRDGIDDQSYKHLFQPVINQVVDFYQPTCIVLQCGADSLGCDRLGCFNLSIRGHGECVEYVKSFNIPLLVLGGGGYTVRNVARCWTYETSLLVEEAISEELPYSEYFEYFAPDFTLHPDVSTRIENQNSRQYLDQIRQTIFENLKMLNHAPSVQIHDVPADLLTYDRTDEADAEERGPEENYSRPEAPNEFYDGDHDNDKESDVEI
T5 sequence (Q9Y618 1-899 partner limits assumed): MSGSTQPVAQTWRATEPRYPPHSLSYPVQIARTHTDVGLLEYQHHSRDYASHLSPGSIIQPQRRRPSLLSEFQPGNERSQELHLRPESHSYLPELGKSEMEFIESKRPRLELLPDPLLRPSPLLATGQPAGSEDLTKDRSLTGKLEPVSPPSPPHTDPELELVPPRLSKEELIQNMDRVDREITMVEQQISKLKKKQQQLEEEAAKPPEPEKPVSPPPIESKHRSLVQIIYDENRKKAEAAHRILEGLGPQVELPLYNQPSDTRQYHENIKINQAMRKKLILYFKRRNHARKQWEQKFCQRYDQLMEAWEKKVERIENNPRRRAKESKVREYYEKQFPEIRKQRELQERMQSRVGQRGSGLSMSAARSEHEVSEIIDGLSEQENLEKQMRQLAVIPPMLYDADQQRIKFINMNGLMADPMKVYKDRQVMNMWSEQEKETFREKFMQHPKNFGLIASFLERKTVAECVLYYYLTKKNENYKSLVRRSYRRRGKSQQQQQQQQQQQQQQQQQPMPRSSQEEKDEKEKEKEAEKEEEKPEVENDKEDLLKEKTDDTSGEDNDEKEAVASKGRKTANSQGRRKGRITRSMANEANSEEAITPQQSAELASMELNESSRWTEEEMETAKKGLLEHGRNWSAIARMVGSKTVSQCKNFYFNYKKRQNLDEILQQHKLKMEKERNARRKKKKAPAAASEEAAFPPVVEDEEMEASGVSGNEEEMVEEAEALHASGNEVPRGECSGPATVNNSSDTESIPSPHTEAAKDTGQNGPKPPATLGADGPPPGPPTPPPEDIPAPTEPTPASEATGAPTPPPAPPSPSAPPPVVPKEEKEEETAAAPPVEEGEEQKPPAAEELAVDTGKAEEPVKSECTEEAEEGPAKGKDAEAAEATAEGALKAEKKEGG
T4 sequence (Q92769 whole entry): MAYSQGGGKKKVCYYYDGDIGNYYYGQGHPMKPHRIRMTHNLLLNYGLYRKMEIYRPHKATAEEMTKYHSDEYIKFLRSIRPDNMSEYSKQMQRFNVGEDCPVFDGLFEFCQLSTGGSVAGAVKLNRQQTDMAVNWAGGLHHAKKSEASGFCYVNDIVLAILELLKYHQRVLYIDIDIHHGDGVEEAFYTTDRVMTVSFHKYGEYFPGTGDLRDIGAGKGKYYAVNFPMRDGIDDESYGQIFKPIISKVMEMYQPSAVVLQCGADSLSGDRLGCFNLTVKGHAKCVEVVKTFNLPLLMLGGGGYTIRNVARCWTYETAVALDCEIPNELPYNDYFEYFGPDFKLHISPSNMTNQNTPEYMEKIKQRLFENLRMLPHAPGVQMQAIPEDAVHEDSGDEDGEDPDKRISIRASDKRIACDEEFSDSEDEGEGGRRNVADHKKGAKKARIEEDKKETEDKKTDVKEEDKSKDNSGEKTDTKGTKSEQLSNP
T3 sequence (Q13547 whole entry): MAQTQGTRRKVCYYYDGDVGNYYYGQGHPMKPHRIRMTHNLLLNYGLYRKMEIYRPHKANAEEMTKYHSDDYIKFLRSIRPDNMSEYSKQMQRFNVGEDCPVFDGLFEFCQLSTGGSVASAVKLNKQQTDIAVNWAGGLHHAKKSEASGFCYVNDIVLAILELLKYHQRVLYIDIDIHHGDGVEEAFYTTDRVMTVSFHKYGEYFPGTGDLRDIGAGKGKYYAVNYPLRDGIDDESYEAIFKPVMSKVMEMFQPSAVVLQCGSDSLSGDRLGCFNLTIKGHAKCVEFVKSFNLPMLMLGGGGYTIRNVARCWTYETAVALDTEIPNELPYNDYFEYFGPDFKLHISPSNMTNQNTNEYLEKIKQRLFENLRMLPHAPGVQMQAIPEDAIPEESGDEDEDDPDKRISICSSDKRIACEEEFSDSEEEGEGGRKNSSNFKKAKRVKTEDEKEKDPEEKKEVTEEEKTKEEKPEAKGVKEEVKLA

`CCC(=O)CCCCC[C@H](NC(=O)C1CCC2(CC1)CN(C)C2)c1ncc(-c2ccc3nn(C)cc3c2)[nH]1` [Compound 156]: the IC50 at Recombinant human HDAC8 came to 5.83 µM; against HDAC6, 7.53 µM; on Recombinant human HDAC1, 0.00503 µM; on Recombinant human HDAC2, 0.0151 µM; in assay [1] it was 0.00198 µM.
For `CCC(=O)CCCCC[C@H](NC(=O)C1(CC(C)C)CC2(CN(C)C2)C1)c1ncc(-c2ccc3nc(C)ccc3c2)[nH]1` [Compound 157], in that order: 4.18 µM, 8.53 µM, 0.00539 µM, 0.0119 µM and 0.00401 µM.
Taken in the same sequence, the figures for `CCC(=O)CCCCC[C@H](NC(=O)[C@H]1CC12CCN(CC)CC2)c1ncc(-c2ccc3c(cnn3C3CC3)c2)[nH]1` [Compound 159] were 4.62 µM, 2.95 µM, 0.00044 µM, 0.0024 µM and 0.00049 µM.
Turning to `CCC(=O)CCCCC[C@H](NC(=O)[C@H]1CC12CCN(C)CC2)c1ncc(-c2ccc3nc(C4CC4)oc3c2)[nH]1` [Compound 160], the IC50 at Recombinant human HDAC8 came out at 16.8 µM; against HDAC6, 10.4 µM; at Recombinant human HDAC1, 0.00189 µM; on Recombinant human HDAC2, 0.0121 µM; in assay [1], 0.00275 µM.
Taken in the same sequence, the figures for `CCC(=O)CCCCC[C@H](NC(=O)[C@H]1CC12CCN(CC)CC2)c1ncc(-c2ccc(-c3cnc(C4CC4)nc3)cc2)o1` [Compound 161] were 26.8 µM, 11.7 µM, 0.0545 µM, 0.163 µM and 0.033 µM.
For `CCC(=O)CCCCC[C@H](NC(=O)[C@H]1CC12CCN(CC)CC2)c1ncc(-c2ccc3c(=O)n(CC)ccc3c2)o1` [Compound 162], in that order: more than 45 µM, 6.53 µM, 0.00324 µM, 0.0095 µM and 0.00284 µM.
As for `CCN1CCC2(CC1)C[C@@H]2C(=O)N[C@@H](CCCCCC(=O)CC1CC1)c1ncc(-c2cc3ccc(C)nc3cc2OC)[nH]1` [Compound 165], the IC50 was 14.7 µM on Recombinant human HDAC8; 11.9 µM against HDAC6; 0.00118 µM on Recombinant human HDAC1; 0.008 µM at Recombinant human HDAC2; 0.00214 µM in assay [1].
For `CCN1CCC2(CC1)C[C@@H]2C(=O)N[C@@H](CCCCCC(=O)CC1CC1)c1ncc(-c2cc3ccc(C)nc3cc2OC)o1` [Compound 167], in that order: 8.27 µM, 3.32 µM, 0.00097 µM, 0.008 µM and 0.00112 µM.
For `CCC(=O)CCCCC[C@H](NC(=O)[C@H]1CC12CCN(C)CC2)c1ncc(-c2cc(OC)c3ccccc3n2)[nH]1` [Compound 170], in that order: 0.835 µM, 0.923 µM, 0.00579 µM, 0.0169 µM and 0.00484 µM.
For `CCC(=O)CCCCC[C@H](NC(=O)[C@H]1CC12CCN(C)CC2)c1ncc(-c2ccc3nc(C)cc(Cl)c3c2)[nH]1` [Compound 174], the IC50 came to 1.21 µM at Recombinant human HDAC8; 0.951 µM on HDAC6; 0.00055 µM on Recombinant human HDAC1; 0.0021 µM on Recombinant human HDAC2; 0.00043 µM in assay [1].
Take `CCC(=O)CCCCC[C@H](N)c1ncc(-c2ccc3nc(C)ccc3c2)[nH]1` [Compound 178]: the IC50 on Recombinant human HDAC8 is 3.26 µM; against HDAC6, more than 45 µM; on Recombinant human HDAC1, 0.107 µM; on Recombinant human HDAC2 it was 0.386 µM; in assay [1] it was 0.0549 µM.
